Laboratory results: patent US9802904B2, “Inhibitors of the USP1/UAF1 deubiquitinase complex and uses thereof” (The United States of America, as represented by the …, priority 2012, dated 2017)
Like-named read-outs stand apart in the source and are kept apart here.

Experiments:
USP1/UAF1 = USP1/UAF1 (Homo sapiens (Human), UniProt O94782); experiment: qHTS assay for USP1/UAF1 activity (fluorometric, ubiquitin-rhodamine110); type: biochemical; conditions: USP1/UAF1 inhibition
Procedure: USP1/UAF1 activity was monitored in a fluorometric assay using ubiquitin-rhodamine110. Enzymatic reactions were conducted in an assay buffer (50 mM HEPES, pH 7.8, 0.5 mM EDTA, 100 mM NaCl, 1 mM TCEP, 0.1 mg/mL BSA, and 0.01% Tween-20) that contained 1 nM USP1/UAF1. […] The plates were incubated for 15 min to attain equilibrium, and then the enzymatic reaction was initiated by dispensing 1 μL of Ub-Rho solution (150 nM final concentration). The plates were directly transferred to a ViewLux high-throughput CCD imager (PerkinElmer), where kinetic measurements of rhodamine fluorescence were acquired using a 480 nm excitation/540 nm emission filter set. […] All screening operations were performed on a fully integrated robotic system (Kalypsys Inc., San Diego, Calif.) as described elsewhere. Plates containing DMSO only were included approximately every 50 plates throughout the screen to monitor any systematic trend in the assay signal associated with reagent dispenser variation or decrease in enzyme specific activity. PubChem AID: 651605.

H596 cells = experiment: Cytotoxicity assay in H596 cells (CCK-8 cell viability); type: cell-based, human; conditions: alone, 48 hr, read-out: EC50 of killing H596 cells
Procedure: (§1) The H596 [human non-small cell lung cancer (NSCLC)] cell line was cultured in RFMI-1640 medium containing 10% fetal bovine serum (FBS) at 37° C. and 5% CO2. The HEK293T (human embryonic kidney 293T), U2OS (human osteosarcoma), and HCT116 (human colon cancer) cell lines were cultured in Dulbecco's modified Eagle's medium (DMEM) supplemented with 10% FBS at 37° C. and 5% CO2. All culture mediums contain 100 units/mL penicillin and 0.1 mg/mL streptomycin as antibiotics.
(§2) For cytotoxicity assays, 5×10^3 H596 cells were seeded in each well of the 96-well plate and grown for 24 hr in humidified incubator. […] In the combination assay, cisplatin was dissolved in saline solution and compound 81 was dissolved in DMSO. Equal volume of above solutions was added to each well and cells were incubated for 48 hr. Cells treated with equal volume of DMSO and saline were used as control and designated as 100% viability. The cell viability was measured by CCK-8 solution (Dojindo Molecular Technologies, Inc) as previously described (Chen, J., et al.).

U2OS cells = experiment: Cytotoxicity assay in osteosarcoma U2OS cell line; type: cell-based, human; conditions: alone, read-out: EC50 of killing U2OS cells
Procedure: as §1, §2
Cytotoxicity assays were run as described in Example 6 using the cisplatin-sensitive NSCLC H460 cell line and the osteosarcoma U2OS cell line.

[1] = tested on: USP1/UAF1 cellular activity in HEK293T cells; experiment: PCNA and FANCD2 monoubiquitination in HEK293T cells (Western blot); type: cell-based, human; conditions: 30 μM compound 81, 6 hr, as compared to control
Procedure: (§3) HEK293T or H596 cells were plated in 10 cm dishes and synchronized in S-phase with the double-thymidine block method as described previously (Chen et al., Chemistry & Biology, 2011. 18(11): 1390-400). […] Negative control cells were treated with an equal volume of DMSO and saline (0.9% NaCl). After 6 hr at 37° C., cells were harvested and lysed. Cell extracts were separated on SDS-PAGE and transferred to nitrocellulose membrane. The membranes were then blotted with PCNA antibody or FANCD2 antibody, followed by incubation with HRP-conjugated anti-mouse secondary antibody. Images were quantified in FluorChem Q software (Imgen Technologies).

[2] = tested on: USP1/UAF1 cellular activity in H596 cells; experiment: PCNA and FANCD2 monoubiquitination in H596 cells (Western blot); type: cell-based, human; conditions: 30 μM compound 81, 6 hr, as compared to control
Procedure: as §3

USP1/UAF1, sequence (O94782 whole entry): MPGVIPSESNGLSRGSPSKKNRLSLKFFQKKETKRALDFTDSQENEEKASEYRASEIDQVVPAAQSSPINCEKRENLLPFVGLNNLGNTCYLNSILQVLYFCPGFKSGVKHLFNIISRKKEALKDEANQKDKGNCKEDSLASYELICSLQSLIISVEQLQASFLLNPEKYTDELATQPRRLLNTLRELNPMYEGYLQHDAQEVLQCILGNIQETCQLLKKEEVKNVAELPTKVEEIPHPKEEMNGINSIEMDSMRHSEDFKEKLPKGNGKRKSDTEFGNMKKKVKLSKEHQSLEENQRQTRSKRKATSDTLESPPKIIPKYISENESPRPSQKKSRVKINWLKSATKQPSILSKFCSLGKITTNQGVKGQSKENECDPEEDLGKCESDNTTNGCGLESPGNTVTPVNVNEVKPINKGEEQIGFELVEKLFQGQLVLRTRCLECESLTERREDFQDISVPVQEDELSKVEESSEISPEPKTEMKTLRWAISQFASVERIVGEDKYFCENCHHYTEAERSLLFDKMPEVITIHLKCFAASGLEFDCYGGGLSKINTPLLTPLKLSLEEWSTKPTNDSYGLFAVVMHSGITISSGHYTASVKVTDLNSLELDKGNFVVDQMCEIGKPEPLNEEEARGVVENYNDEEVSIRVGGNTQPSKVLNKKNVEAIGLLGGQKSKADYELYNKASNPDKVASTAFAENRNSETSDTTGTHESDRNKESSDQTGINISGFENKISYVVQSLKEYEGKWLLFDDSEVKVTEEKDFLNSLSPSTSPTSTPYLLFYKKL
USP1/UAF1, sequence (Q8TAF3 whole entry partner): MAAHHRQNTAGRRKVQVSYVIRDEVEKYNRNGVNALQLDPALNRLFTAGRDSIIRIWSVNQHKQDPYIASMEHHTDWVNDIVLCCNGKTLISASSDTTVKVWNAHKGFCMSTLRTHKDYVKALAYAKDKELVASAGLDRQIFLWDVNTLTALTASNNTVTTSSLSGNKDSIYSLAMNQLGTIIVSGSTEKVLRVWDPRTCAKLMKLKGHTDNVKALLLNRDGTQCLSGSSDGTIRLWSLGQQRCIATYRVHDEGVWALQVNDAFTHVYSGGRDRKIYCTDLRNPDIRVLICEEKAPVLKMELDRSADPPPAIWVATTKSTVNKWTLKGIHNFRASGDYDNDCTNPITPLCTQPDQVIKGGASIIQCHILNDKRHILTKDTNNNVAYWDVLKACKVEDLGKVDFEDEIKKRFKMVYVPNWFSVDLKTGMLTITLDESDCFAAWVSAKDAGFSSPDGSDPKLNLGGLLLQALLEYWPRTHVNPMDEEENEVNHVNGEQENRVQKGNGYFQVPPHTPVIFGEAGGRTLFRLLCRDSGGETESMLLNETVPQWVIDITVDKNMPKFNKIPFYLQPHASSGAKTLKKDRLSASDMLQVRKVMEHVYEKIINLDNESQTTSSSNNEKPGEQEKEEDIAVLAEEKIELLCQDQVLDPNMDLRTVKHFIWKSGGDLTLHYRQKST

| Structure (SMILES) | IC50 (USP1/UAF1; Table 1 of Example 8) [µM] | IC50 (USP1/UAF1; Table 4) [µM] | other results |
| --- | --- | --- | --- |
| FC(F)(F)c1ccccc1-c1ncc2c(NCc3cccs3)cccc2n1 [Compound 1] | 7.9 |  |  |
| FC(F)(F)c1ccccc1-c1ncc2c(NCc3ccccc3)cccc2n1 [Compound 5] | 2.4 |  |  |
| FC(F)(F)c1ccccc1-c1ncc2c(NCc3ccc4c(c3)OCO4)cccc2n1 [Compound 7] | 5.4 |  |  |
| COc1ccc(CNc2cccc3nc(-c4ccccc4C(F)(F)F)ncc23)cc1 [Compound 8] | 3 |  |  |
| FC(F)(F)c1ccccc1-c1ncc2c(NCc3ccc(Cl)cc3)cccc2n1 [Compound 10] | 3 |  |  |
| FC(F)(F)c1ccc(CNc2cccc3nc(-c4ccccc4C(F)(F)F)ncc23)cc1 [Compound 11] | 5.4 |  |  |
| FC(F)(F)c1ccccc1-c1ncc2c(NCc3ccc(Cl)c(Cl)c3)cccc2n1 [Compound 12] | 11 |  |  |
| Cc1ccc(CNc2cccc3nc(-c4ccccc4C(F)(F)F)ncc23)s1 [Compound 13] | 4.3 |  |  |
| N#Cc1ccc(CNc2cccc3nc(-c4ccccc4C(F)(F)F)ncc23)cc1 [Compound 14] | 3.4 |  |  |
| FC(F)(F)c1ccccc1-c1ncc2c(NCc3ccc(-c4ccc(Cl)c(Cl)c4)cc3)cccc2n1 [Compound 16] | 1.4 |  |  |
| FC(F)(F)c1ccccc1-c1ncc2c(NCc3ccc(-c4ccc(Cl)cc4)cc3)cccc2n1 [Compound 17] | 2.2 |  |  |
| FC(F)(F)c1ccccc1-c1ncc2c(NCc3ccc(-c4cccc(Cl)c4)cc3)cccc2n1 [Compound 18] | 1.7 |  |  |
| FC(F)(F)c1ccccc1-c1ncc2c(NCc3ccc(-c4cccnc4)cc3)cccc2n1 [Compound 20] | 0.61 |  |  |
| FC(F)(F)c1ccccc1-c1ncc2c(NCc3ccc(-c4cccnc4)cc3)cccc2n1 [Compound 21] | 1.9 |  |  |
| FC(F)(F)c1cc(-c2ccc(CNc3cccc4nc(-c5ccccc5C(F)(F)F)ncc34)cc2)ccc1Cl [Compound 22] | 2.2 |  |  |
| FC(F)(F)c1cc(-c2ccc(CNc3cccc4nc(-c5ccccc5C(F)(F)F)ncc34)cc2)ccn1 [Compound 24] | 4.3 |  |  |
| FC(F)(F)c1ccccc1-c1ncc2c(NCc3ccc(C4CCCCC4)cc3)cccc2n1 [Compound 25] | 5.8 |  |  |
| CC(C)c1ccccc1-c1nc(NCc2ccc(-c3ccccc3)cc2)c2sccc2n1 [Compound 50] |  |  | IC50 (USP1/UAF1; Table 3): 0.12 µM |
| CC(C)c1ccccc1-c1nc(NCc2ccc(-c3ccccc3)cc2)c2ccsc2n1 [Compound 51] |  |  | IC50 (USP1/UAF1; Table 3): 0.24 µM |
| CC(C)c1ccccc1-c1nc(NCc2ccc(-c3ccccc3)cc2)c2nc[nH]c2n1 [Compound 52] |  |  | IC50 (USP1/UAF1; Table 3): 2.12 µM |
| CC(C)c1ccccc1-c1nc2c(c(NCc3ccc(-c4ccccc4)cc3)n1)CCC2 [Compound 53] |  |  | IC50 (USP1/UAF1; Table 3): 1.5 µM |
| CC(C)c1ccccc1-c1nc(NCc2ccc(-c3ccccc3)cc2)c2cccn2n1 [Compound 54] |  |  | IC50 (USP1/UAF1; Table 3): 0.22 µM |
| CC(C)c1ccccc1C1=NC2CNCCC2C(NCc2ccc(-c3ccccc3)cc2)=N1 (stereo not drawn) [Compound 55] |  |  | IC50 (USP1/UAF1; Table 3): 0.48 µM |
| CC(C)c1ccccc1C1=NC2CCCC2C(NCc2ccc(-c3ccccc3)cc2)=N1 (stereo not drawn) [Compound 56] |  |  | IC50 (USP1/UAF1; Table 3): 0.14 µM |
| CC(C)c1ccccc1C1=NC2C=COC2C(NCc2ccc(-c3ccccc3)cc2)=N1 (stereo not drawn) [Compound 57] |  |  | IC50 (USP1/UAF1; Table 3): 0.15 µM |

| Structure (SMILES) | IC50 (USP1/UAF1; Table 1 of Example 8) [µM] | IC50 (USP1/UAF1; Table 4) [µM] | other results |
| --- | --- | --- | --- |
| CC(C)c1ccccc1C1=NCCC(NCc2ccc(-c3ccccc3)cc2)=N1 [Compound 58] |  |  | IC50 (USP1/UAF1; Table 3): 0.12 µM |
| CCc1cnc(-c2ccccc2C(C)C)nc1NCc1ccc(-c2ccccc2)cc1 [Compound 60] |  |  | IC50 (USP1/UAF1; Table 3): 0.043 µM |
| CC(C)c1ccccc1-c1ncc(F)c(NCc2ccc(-c3ccccc3)cc2)n1 [Compound 61] |  |  | IC50 (USP1/UAF1; Table 3): 0.061 µM |
| CC(C)c1ccccc1-c1ncc(N)c(NCc2ccc(-c3ccccc3)cc2)n1 [Compound 62] |  |  | IC50 (USP1/UAF1; Table 3): 0.27 µM |
| CC(C)c1ccccc1-c1ncc(N(C)C)c(NCc2ccc(-c3ccccc3)cc2)n1 [Compound 63] |  |  | IC50 (USP1/UAF1; Table 3): 0.15 µM |
| CSc1cnc(-c2ccccc2C(C)C)nc1NCc1ccc(-c2ccccc2)cc1 [Compound 64] |  |  | IC50 (USP1/UAF1; Table 3): 0.086 µM |
| Cc1cc(NCc2ccc(-c3ccccc3)cc2)nc(-c2ccccc2C(C)C)n1 [Compound 65] |  |  | IC50 (USP1/UAF1; Table 3): 0.48 µM |
| Cc1nc(-c2ccccc2C(C)C)nc(NCc2ccc(-c3ccccc3)cc2)c1C [Compound 66] |  |  | IC50 (USP1/UAF1; Table 3): 0.14 µM |
| Cc1cccc(CNc2nc(-c3ccccc3C(C)C)ncc2C)c1 [Compound 67] |  | 0.14 |  |
| Cc1cnc(-c2ccccc2C(C)C)nc1NCc1cccnc1 [Compound 68] |  | 2.2 |  |
| Cc1cnc(-c2ccccc2C(C)C)nc1NCc1cccs1 [Compound 69] |  | 0.22 |  |
| Cc1cccc(C(CO)Nc2nc(-c3ccccc3C(C)C)ncc2C)c1 (stereo not drawn) [Compound 70] |  | 1.1 |  |
| Cc1cnc(-c2ccccc2C(C)C)nc1NCC1CCN(C)CC1 [Compound 71] |  | 30 |  |
| Cc1ccc(-c2ccc(CNc3nc(-c4ccccc4C(C)C)ncc3C)cc2)cn1 [Compound 72] |  | 0.043 |  |
| Cc1cnc(-c2ccccc2C(C)C)nc1NCc1ccc(-c2ccnc(C(F)(F)F)c2)cc1 [Compound 73] |  | 0.38 |  |
| Cc1cnc(-c2ccccc2C(C)C)nc1NCC1CCN(c2cccnc2)CC1 [Compound 74] |  | 0.048 |  |
| Cc1ccc(N2CCC(CNc3nc(-c4ccccc4C(C)C)ncc3C)CC2)cn1 [Compound 75] |  | 2.2 |  |
| Cc1cnc(-c2ccccc2C(C)C)nc1NCC1CCN(c2cnccn2)CC1 [Compound 76] |  | 0.12 |  |
| Cc1cnc(-c2ccccc2C(C)C)nc1NCC1CC(c2cccnc2)C1 (stereo not drawn) [Compound 77] |  | 6.8 |  |
| Cc1cnc(-c2ccccc2C(C)C)nc1NCC1CCN(c2cccnc2)C1 (stereo not drawn) [Compound 78] |  | 0.48 |  |
| Cc1cnc(-c2ccccc2C(C)C)nc1NCc1ccc(-n2ccnn2)cc1 [Compound 81, N-(4-(1H-1,2,3-triazol-1-yl)benzyl)-2-(2-isopropylphenyl)-5-methylpyrimidin-4-amine] |  |  | EC50 (H596 cells; Homo sapiens, NCI-H596): > 10 µM; EC50 (U2OS cells; Homo sapiens, U2OS): > 10 µM; PCNA and FANCD2 monoubiquitination [1]: increase in PCNA and FANCD2 monoubiquitination; PCNA and FANCD2 monoubiquitination [2]: increase in PCNA and FANCD2 monoubiquitination |
| Cc1cnc(-c2ccccc2C(C)C)nc1NCc1ccc(C(N)=O)cc1 [Compound 84] |  | 6.8 |  |
| Cc1cnc(-c2ccccc2C(C)C)nc1NC1(c2ccc(-c3cccnc3)cc2)CC1 [Compound 89] |  | 0.034 |  |
| Cc1cnc(-c2ccccc2C(C)C)nc1NC(C)(C)c1ccc(-c2cccnc2)cc1 [Compound 90] |  | 0.19 |  |
| N.N.[Cl][Pt][Cl] [cisplatin, reference compound] |  |  | EC50 (H596 cells): 0.486 µM; EC50 (U2OS cells): 0.629 µM |

Further lines, with some results ahead:

| IC50 (USP1/UAF1; Table 1 of Example 8) [µM] | IC50 (USP1/UAF1; Table 4) [µM] | Structure (SMILES) | other results |
| --- | --- | --- | --- |
| 3 |  | FC(F)(F)c1ccccc1-c1ncc2c(NCc3ccc(-c4ccccc4)cc3)cccc2n1 [Compound 6] |  |
| 2.4 |  | Fc1ccc(CNc2cccc3nc(-c4ccccc4C(F)(F)F)ncc23)cc1 [Compound 9] |  |
| 7.6 |  | FC(F)(F)c1ccccc1-c1ncc2c(NCC#Cc3cccnc3)cccc2n1 [Compound 15] |  |
| 0.48 |  | FC(F)(F)c1ccccc1-c1ncc2c(NCc3ccc(-c4ccncc4)cc3)cccc2n1 [Compound 19] |  |
| 7.6 |  | FC(F)(F)c1ccccc1-c1ncc2c(NCc3ccc(N4CCOCC4)cc3)cccc2n1 [Compound 23] |  |
|  | 0.061 | Cc1cnc(-c2ccccc2C(C)C)nc1NCc1ccc(-c2ccc(F)nc2)cc1 [Compound 79] |  |
|  | 7.6 | Cc1cnc(-c2ccccc2C(C)C)nc1NCc1ccc(C2CCCNC2)cc1 (stereo not drawn) [Compound 80] |  |
|  | 0.24 | Cc1cnc(-c2ccccc2C(C)C)nc1NCc1ccc(-c2cnn[nH]2)cc1 [Compound 82] |  |
|  | 7.6 | Cc1cnc(-c2ccccc2C(C)C)nc1NCc1ccc(-c2nnn[nH]2)cc1 [Compound 83] |  |
|  | 15 | Cc1cnc(-c2ccccc2C(C)C)nc1NCC1CCN(C2COC2)CC1 [Compound 85] |  |
|  | 0.061 | Cc1cnc(-c2ccccc2C(C)C)nc1NCc1ccc(-c2cccnc2)cc1 [Compound 86] |  |
|  | 0.15 | Cc1cnc(-c2ccccc2C(C)C)nc1NCc1ccc(-c2cc[nH]n2)cc1 [Compound 88] |  |
